How the values were obtained:
[1] = target: C-C chemokine receptor type 5 (Homo sapiens, UniProt P51681); assay type: cell membranes, Membrane; conditions: hek293; further: in other assays of this panel Not Active means under 50% inhibition at 10 µM
[2] = target: Mitogen-activated protein kinase 14 (Homo sapiens, UniProt Q16539); set-up: species or system Escherichia coli;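 further: inhibition of p38alpha enzyme activity in a biochemical kinase assay, with myelin basic protein serving as substrate; in other assays of this panel Not Active means under 50% inhibition at 10 µM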
[3] = DRUGMATRIX: Glutamate, NMDA, Agonism radioligand binding (ligand: [3H] CGP-39653); assay type: cell membranes, Rattus norvegicus, Wistar, Cerebral cortex, Membrane; conditions: Not Active = under 50% inhibition at 10 µM
[4] = DRUGMATRIX: Calcium Channel Type L, Phenylalkylamine radioligand binding (ligand: [3H] (-)-Desmethoxyverapamil (D-888)); assay type: cell membranes, Rattus norvegicus, Wistar, Brain, Membrane; conditions: Not Active = under 50% inhibition at 10 µM
[5] = target: T1, Amine oxidase [flavin-containing] A (Homo sapiens, UniProt P21397); assay: DRUGMATRIX: Monoamine Oxidase MAO-A enzyme inhibition (substrate: Kynuramine); set-up: species or system BTI-TN-5B1-4; conditions: bti-tn-5b1-4; Not Active = under 50% inhibition at 10 µM
T1 sequence (P21397 whole entry): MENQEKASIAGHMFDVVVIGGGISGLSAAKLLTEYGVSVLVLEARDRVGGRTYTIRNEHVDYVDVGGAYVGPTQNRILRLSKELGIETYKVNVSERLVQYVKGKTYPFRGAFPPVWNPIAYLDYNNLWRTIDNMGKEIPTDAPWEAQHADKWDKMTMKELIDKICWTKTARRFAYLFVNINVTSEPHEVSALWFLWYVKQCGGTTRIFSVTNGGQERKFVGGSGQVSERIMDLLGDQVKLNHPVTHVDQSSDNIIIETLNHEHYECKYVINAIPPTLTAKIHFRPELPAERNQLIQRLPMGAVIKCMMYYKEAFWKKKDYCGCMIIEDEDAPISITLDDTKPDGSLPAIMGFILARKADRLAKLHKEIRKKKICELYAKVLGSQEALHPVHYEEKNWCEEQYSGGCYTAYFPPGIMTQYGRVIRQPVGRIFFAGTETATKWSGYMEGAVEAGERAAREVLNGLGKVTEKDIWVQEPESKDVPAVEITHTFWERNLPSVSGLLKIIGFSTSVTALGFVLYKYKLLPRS

[6] = target: Melanocortin receptor 3 (Homo sapiens, UniProt P41968); assay type: cell membranes, HEK293, Membrane; conditions: hek293; further: in other assays of this panel Not Active means under 50% inhibition at 10 µM
[7] = target: Cytochrome P450 2C9 (Homo sapiens, UniProt P11712); conditions: bti-tn-5b1-4; further: in other assays of this panel Not Active means under 50% inhibition at 10 µM
[8] = target: T2, Vasoactive intestinal polypeptide receptor 1 (Homo sapiens, UniProt P32241); assay type: cell membranes, Membrane; conditions: ht-29; further: in other assays of this panel Not Active means under 50% inhibition at 10 µM
T2 sequence (P32241 whole entry): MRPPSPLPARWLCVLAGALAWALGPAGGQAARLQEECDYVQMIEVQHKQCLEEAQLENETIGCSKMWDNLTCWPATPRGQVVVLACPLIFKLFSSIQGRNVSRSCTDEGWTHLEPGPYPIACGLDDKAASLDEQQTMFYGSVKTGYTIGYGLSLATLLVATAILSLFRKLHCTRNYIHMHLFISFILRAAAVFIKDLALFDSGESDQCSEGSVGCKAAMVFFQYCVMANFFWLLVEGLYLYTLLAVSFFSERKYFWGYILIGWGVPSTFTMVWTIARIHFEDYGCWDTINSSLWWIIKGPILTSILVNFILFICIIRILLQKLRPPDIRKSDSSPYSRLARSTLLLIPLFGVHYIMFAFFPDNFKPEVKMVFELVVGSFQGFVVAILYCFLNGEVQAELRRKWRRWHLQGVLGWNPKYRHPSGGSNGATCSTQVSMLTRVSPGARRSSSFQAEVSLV

Chain of Cytochrome P450 2C9 (P11712 whole entry): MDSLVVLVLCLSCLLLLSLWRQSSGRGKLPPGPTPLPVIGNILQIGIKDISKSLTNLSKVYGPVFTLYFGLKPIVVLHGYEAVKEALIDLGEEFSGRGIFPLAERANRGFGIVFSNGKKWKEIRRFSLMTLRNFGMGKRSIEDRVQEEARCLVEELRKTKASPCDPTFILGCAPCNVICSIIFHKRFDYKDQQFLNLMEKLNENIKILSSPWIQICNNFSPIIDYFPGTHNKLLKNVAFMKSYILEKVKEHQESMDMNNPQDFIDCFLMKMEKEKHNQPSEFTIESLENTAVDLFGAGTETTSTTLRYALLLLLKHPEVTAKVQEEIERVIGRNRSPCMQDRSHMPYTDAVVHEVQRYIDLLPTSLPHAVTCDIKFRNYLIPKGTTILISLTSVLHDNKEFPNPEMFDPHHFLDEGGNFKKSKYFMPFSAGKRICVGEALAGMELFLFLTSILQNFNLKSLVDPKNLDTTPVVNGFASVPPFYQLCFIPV
Chain of Mitogen-activated protein kinase 14 (Q16539 whole entry): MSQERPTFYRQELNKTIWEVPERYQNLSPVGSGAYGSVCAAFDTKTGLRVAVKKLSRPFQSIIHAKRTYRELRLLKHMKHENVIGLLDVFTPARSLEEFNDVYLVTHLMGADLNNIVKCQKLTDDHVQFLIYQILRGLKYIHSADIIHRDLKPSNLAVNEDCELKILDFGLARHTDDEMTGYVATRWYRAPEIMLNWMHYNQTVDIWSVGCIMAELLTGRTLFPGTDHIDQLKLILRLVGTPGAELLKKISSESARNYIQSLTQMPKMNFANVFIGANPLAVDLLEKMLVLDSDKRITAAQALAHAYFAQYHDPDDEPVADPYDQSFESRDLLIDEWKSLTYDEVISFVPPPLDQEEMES
Chain of Melanocortin receptor 3 (P41968 whole entry): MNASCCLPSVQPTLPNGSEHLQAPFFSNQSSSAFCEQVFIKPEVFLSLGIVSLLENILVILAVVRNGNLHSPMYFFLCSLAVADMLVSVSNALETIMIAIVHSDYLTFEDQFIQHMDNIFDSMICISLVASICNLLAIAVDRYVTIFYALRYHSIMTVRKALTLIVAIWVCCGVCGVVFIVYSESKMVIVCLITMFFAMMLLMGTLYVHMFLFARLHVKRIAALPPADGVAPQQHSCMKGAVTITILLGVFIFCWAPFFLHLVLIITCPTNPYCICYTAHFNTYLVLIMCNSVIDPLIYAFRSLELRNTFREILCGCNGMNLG
Chain of C-C chemokine receptor type 5 (P51681 whole entry): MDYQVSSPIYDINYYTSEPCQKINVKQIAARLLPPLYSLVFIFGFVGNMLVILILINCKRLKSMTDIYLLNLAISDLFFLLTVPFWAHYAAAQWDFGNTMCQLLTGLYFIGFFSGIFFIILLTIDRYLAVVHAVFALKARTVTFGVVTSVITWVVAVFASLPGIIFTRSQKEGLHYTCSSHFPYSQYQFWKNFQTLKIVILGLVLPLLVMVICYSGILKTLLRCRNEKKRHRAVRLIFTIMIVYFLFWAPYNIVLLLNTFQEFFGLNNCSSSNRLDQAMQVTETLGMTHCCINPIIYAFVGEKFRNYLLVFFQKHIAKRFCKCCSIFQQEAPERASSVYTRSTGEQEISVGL

O=c1cnn([C@@H]2O[C@H](CO)[C@@H](O)[C@H]2O)c(=O)[nH]1 [6-AZAURIDINE]
Not Active: IC50 [1] | IC50 [2] | IC50 [3] | Ki [3] | IC50 [4] | Ki [4] | IC50 [5] | IC50 [6] | IC50 [7] | Ki [7] | IC50 [8]

CC[C@H](C)[C@H]1O[C@]2(C=C[C@@H]1C)C[C@@H]1C[C@@H](C/C=C(\C)[C@@H](O[C@H]3C[C@H](OC)[C@@H](O[C@H]4C[C@H](OC)[C@@H](O)[C@H](C)O4)[C@H](C)O3)[C@@H](C)/C=C/C=C3\CO[C@@H]4[C@H](O)C(C)=C[C@@H](C(=O)O1)[C@]34O)O2.CO[C@H]1C[C@H](O[C@H]2[C@H](C)O[C@@H](O[C@@H]3/C(C)=C/C[C@@H]4C[C@@H](C[C@]5(C=C[C@H](C)[C@@H](C(C)C)O5)O4)OC(=O)[C@@H]4C=C(C)[C@@H](O)[C@H]5OC/C(=C\C=C\[C@@H]3C)[C@]54O)C[C@@H]2OC)O[C@@H](C)[C@@H]1O [ABAMECTIN]
Not Active: IC50 [1] | IC50 [2] | IC50 [3] | Ki [3] | IC50 [4] | Ki [4] | IC50 [5] | IC50 [6] | IC50 [7] | Ki [7] | IC50 [8]

Cc1nnc2n1-c1ccc(Cl)cc1C(c1ccccc1)=NC2 [ALPRAZOLAM]
Not Active: IC50 [1] | IC50 [2] | IC50 [3] | Ki [3] | IC50 [4] | Ki [4] | IC50 [5] | IC50 [6] | IC50 [7] | Ki [7] | IC50 [8]

CCC1(CCC(C)C)C(=O)NC(=O)NC1=O [AMOBARBITAL]
Not Active: IC50 [1] | IC50 [2] | IC50 [3] | Ki [3] | IC50 [4] | Ki [4] | IC50 [5] | IC50 [6] | IC50 [7] | Ki [7] | IC50 [8]

COc1ccc(C2C(=O)c3ccccc3C2=O)cc1 [ANISINDIONE]
Not Active: IC50 [1] | IC50 [2] | IC50 [3] | Ki [3] | IC50 [4] | Ki [4] | IC50 [5] | IC50 [6] | IC50 [7] | Ki [7] | IC50 [8]

O=C1O[C@H]([C@@H](O)CO)C(O)=C1O [ASCORBIC ACID]
Not Active: IC50 [1] | IC50 [2] | IC50 [3] | Ki [3] | IC50 [4] | Ki [4] | IC50 [5] | IC50 [6] | IC50 [7] | Ki [7] | IC50 [8]

CC(C(=O)O)c1ccc2oc(-c3ccc(Cl)cc3)nc2c1 (centres undefined) [BENOXAPROFEN]
Not Active: IC50 [1] | IC50 [2] | IC50 [3] | Ki [3] | IC50 [4] | Ki [4] | IC50 [5] | IC50 [6] | IC50 [7] | Ki [7] | IC50 [8]

COc1ccc2cc3[n+](cc2c1OC)CCc1cc2c(cc1-3)OCO2.[Cl-] [BERBERINE CHLORIDE]
Not Active: IC50 [1] | IC50 [2] | IC50 [3] | Ki [3] | IC50 [4] | Ki [4] | IC50 [5] | IC50 [6] | IC50 [7] | Ki [7] | IC50 [8]

O=C(O)CCNC(=O)c1ccccc1 [BETAMIPRON]
Not Active: IC50 [1] | IC50 [2] | IC50 [3] | Ki [3] | IC50 [4] | Ki [4] | IC50 [5] | IC50 [6] | IC50 [7] | Ki [7] | IC50 [8]
